Results on three compounds are retold here after publication PMC5736936, “Xylopine Induces Oxidative Stress and Causes G2/M Phase Arrest, Triggering Caspase-Mediated Apoptosis by p53-Independent Pathway in HCT116 Cells” (Oxidative Medicine and Cellular Longevity, 2017).

In experiment [1] the test system is B16-F10 (murine melanoma). Kind of experiment: Cytotoxic activity, alamarBlue assay, 72 h. It is filed as cell-based. Conditions: for IC50: B16-F10, alamarBlue, 72 h. The source says: (§1) MCF7 (human breast carcinoma), HCT116 (human colon carcinoma), HepG2 (human hepatocellular carcinoma), SCC-9 (human oral squamous cell carcinoma), HSC-3 (human oral squamous cell carcinoma), HL-60 (human promyelocytic leukemia), K-562 (human chronic myelogenous leukemia), B16-F10 (murine melanoma), MRC-5 (human lung fibroblast), WT SV40 MEF (wild-type immortalized mouse embryonic fibroblast), and BAD KO SV40 MEF (BAD gene knockout immortalized mouse embryonic fibroblast) cell lines were obtained from the American Type Culture Collection (ATCC, Manassas, VA, USA). Cells were cultured in complete medium with appropriate supplements as recommended by ATCC. All cell lines were tested for mycoplasma using the Mycoplasma Stain Kit (Sigma-Aldrich) to validate the use of cells free from contamination. Primary cell culture of peripheral blood mononuclear cells (PBMC) was obtained by standard Ficoll density protocol. The Research Ethics Committee of the Oswaldo Cruz Foundation (Salvador, BA, Brazil) approved the experimental protocol (number 031019/2013). Cell viability was examined using trypan blue exclusion assay for all experiments.
(§2) Cell viability was quantified using the alamarBlue assay according to Ahmed et al.. Cells were inserted in 96-well plates for all experiments (7 × 10^4 cells/mL for adherent cells or 3 × 10^5 cells/mL for suspended cells in 100 μL of medium). After 24 h, xylopine was dissolved in dimethyl sulfoxide (DMSO) and added to each well and incubated for 72 h. […] Four (for cell lines) or 24 h (for PBMCs) before the end of incubation, 20 μL of a stock solution (0.312 mg/mL) of the alamarBlue (resazurin, Sigma-Aldrich Co., Saint Louis, MO, USA) was added to each well. Absorbance at 570 nm and 600 nm was measured using the SpectraMax 190 Microplate Reader (Molecular Devices, Sunnyvale, CA, USA), and the drug effect was quantified as the percentage of control absorbance.
Background: Alamar Blue is a resazurin reagent that responds to reducing activity.

In experiment [2] the test system is HCT116 (human colon carcinoma). Kind of experiment: Cytotoxic activity, alamarBlue assay, 72 h. It is filed as cell-based. Conditions: for IC50: HCT116, alamarBlue, 72 h.
Description: as §1, §2

Experiment [3] deals with HL-60 (human promyelocytic leukemia). In words: Cytotoxic activity, alamarBlue assay, 72 h. Format: cell-based. To be noted: for IC50: HL-60, alamarBlue, 72 h.
Description: as §1, §2

The test system of experiment [4] is HSC3 (human oral squamous cell carcinoma). Kind of experiment: Cytotoxic activity, alamarBlue assay, 72 h. Conditions: for IC50: HSC3, alamarBlue, 72 h. It is filed as cell-based.
Description: as §1, §2

Experiment [5] deals with HepG2 (human hepatocellular carcinoma). Kind of experiment: Cytotoxic activity, alamarBlue assay, 72 h. To be noted: for IC50: HepG2, alamarBlue, 72 h. Format: cell-based.
Description: as §1, §2

The test system of experiment [6] is K562 (human chronic myelogenous leukemia). Kind of experiment: Cytotoxic activity, alamarBlue assay, 72 h. Conditions: for IC50: K562, alamarBlue, 72 h. It is filed as cell-based.
Description: as §1, §2

The subject of experiment [7] is MCF7 (human breast carcinoma). Kind of experiment: Cytotoxic activity, alamarBlue assay, 72 h. Format: cell-based. Conditions: for IC50: MCF7, alamarBlue, 72 h.
Description: as §1, §2

The test system of experiment [8] is MRC5 (human lung fibroblast). In words: Cytotoxic activity, alamarBlue assay, 72 h (noncancer cells). It is filed as cell-based.
Description: as §1, §2

Experiment [9] concerns PBMC (human peripheral blood mononuclear cells). The description is as above. Format: cell-based.
Description: as §1, §2

In experiment [10] the test system is cancer multicellular spheroids formed from HCT116 cells. In words: 3D multicellular spheroids culture, alamarBlue assay, 72 h. Format: cell-based, human. Conditions: 3D spheroids of HCT116, alamarBlue, 72 h. As for the experimental part: HCT116 cells were cultivated in three-dimensional (3D) multicellular spheroids. Briefly, 100 μL of a solution of cells (0.5 × 10^6 cells/mL) was inserted in 96-well plates with a cell-repellent surface (Greiner Bio-One, Kremsmünster, Austria) and cultured in complete medium plus 3% Matrigel (BD Biosciences, San Jose, CA, USA). Spheroids with stable structures had formed after three days. Then, the spheroids were exposed to a range of drug concentrations for 72 h, after which the cell viability was quantified by alamarBlue assay as described above.

For experiment [11], the system named is HCT116 cells. Kind of experiment: Cell viability by trypan blue exclusion assay. Format: cell-based, human. To be noted: HCT116, trypan blue, DOX 1 μM, OXA 2.5 μM, 24 and 48 h.
Description: as §1

Experiment [12] has as its system HCT116 cells. It is filed as cell-based, human. To be noted: for cell cycle block: OXA 2.5 μM. The method, then:
Cells were harvested in a permeabilization solution containing 0.1% Triton X-100 (Sigma Chemical Co., St Louis, MO, USA), 2 μg/mL propidium iodide (Sigma Chemical Co.), 0.1% sodium citrate, and 100 μg/mL RNAse (Sigma Chemical Co.) and incubated in the dark for 15 min at room temperature. Finally, cell fluorescence was measured by flow cytometry on a BD LSRFortessa cytometer using the BD FACSDiva software (BD Biosciences) and FlowJo software 10 (FlowJo, LCC, Ashland, OR, USA).

The test system of experiment [13] is HCT116 cells. In words: Morphological analysis (May-Grünwald-Giemsa). Format: cell-based, human. Conditions: 24 and 48 h, DOX 1 μM, OXA 2.5 μM. The method, then: To evaluate alterations in morphology, cells were cultured under coverslip and stained with May-Grünwald-Giemsa. Morphological changes were examined by light microscopy using Image-Pro software.
The subject of experiment [14] is SCC9 (human oral squamous cell carcinoma). Kind of experiment: Cytotoxic activity, alamarBlue assay, 72 h. Format: cell-based.
Description: as §1, §2

Experiment [15] relates to BAD KO SV40 MEF (BAD gene knockout immortalized mouse embryonic fibroblast). Kind of experiment: Cytotoxic activity in BAD gene knockout fibroblasts. Format: cell-based. To be noted: BAD KO SV40 MEF cell line.
Description: as §1, §2

The subject of experiment [16] is WT SV40 MEF (wild-type immortalized mouse embryonic fibroblast). Kind of experiment: Cytotoxic activity in wild-type fibroblasts. Conditions: WT SV40 MEF cell line. Format: cell-based.
Description: as §1, §2

The next experiment has as its system calf thymus DNA (ctDNA). In words: DNA intercalation assay (ethidium bromide displacement). It is filed as binding. To be noted: doxorubicin 10 μM, data not shown. The method, then:
DNA intercalation was assessed by examining the ability of xylopine to displace ethidium bromide from calf thymus DNA (ctDNA, Sigma-Aldrich Co.). The assay was conducted in 96-well plates and contained 15 μg/mL ctDNA, 1.5 μM ethidium bromide, and 10 or 20 μM xylopine in 100 μL saline solution. […] Fluorescence was measured using excitation and emission wavelengths of 320 and 600 nm, respectively.

Where [17] appears, read: HCT116, OXA 2.5 μM, 24 h incubation.
[18] abbreviates: HCT116, OXA 2.5 μM, 48 h incubation.
The mark [19] stands for this setting: HCT116, DOX 1 μM, 24 h incubation.
The mark [20] stands for this setting: HCT116, DOX 1 μM, 48 h incubation.

As a reminder, the IC50 is the point on the concentration scale where inhibition reaches its midpoint. Low readings indicate inhibition by little substance, high ones a need for much substance.

Like-named read-outs stand apart in the source and are kept apart here.

Take `O=C1[O][Pt]2([NH][C@@H]3CCCC[C@H]3[NH]2)[O]C1=O` [OXA, oxaliplatin, reference compound]: the IC50 turned out to be 100 nM in [1]; 4100 nM in experiment [2]; 400 nM in experiment [3]; 3300 nM in experiment [4]; 1000 nM in experiment [5]; 900 nM in experiment [6]. Besides, the IC50 in [7] came to 5900 nM; in experiment [8] it was 1500 nM; in experiment [9], 14900 nM; in experiment [10] it was 6 µM. For the same compound, the “number of viable cells” value in the experiment with HCT116 cells [11] was “reduced the number of viable cells”. The cell cycle block result in the experiment on HCT116 cells [12] (HCT116, DOX 1 μM) was “caused cell cycle block at the phase G2/M”. In addition, the results for the “DNA content (%) G0/G1” value in the experiment on HCT116 cells [12] (setting [17]) and with HCT116 cells [12] (setting [18]) were 32.4 ± 3.7% and 36.2 ± 2.6%, respectively. In addition, the entries for the “DNA content (%) G2/M” value in the experiment on HCT116 cells [12] (setting [17]) and in the experiment on HCT116 cells [12] (setting [18]) were 39.9 ± 1.5% and 32.2 ± 4.4%, respectively. Moreover, the figures for the “DNA content (%) S” value with HCT116 cells [12] (setting [17]) and in the experiment with HCT116 cells [12] (setting [18]) were 13.5 ± 3.1% and 7.6 ± 0.4%, respectively. Besides, the “DNA content (%) Sub-G0/G1” value in the experiment with HCT116 cells [12] (setting [17]) came to 8.8 ± 3.5%; with HCT116 cells [12] (setting [18]), 17.7 ± 1.9%. Besides, the cell morphology entry in the experiment with HCT116 cells [13] is “cell shrinkage, chromatin condensation, and nuclear fragmentation”.

Regarding `COc1cccc2c1C(=O)c1c(O)c3c(c(O)c1C2=O)C[C@@](O)(C(=O)CO)C[C@@H]3O[C@H]1C[C@H](N)[C@H](O)[C@H](C)O1` [DOX, doxorubicin], the Selectivity index turned out to be 50 in experiment [1] (IC50(MRC5)/IC50(B16-F10)); 173.3 in [1] (IC50(PBMC)/IC50(B16-F10)); 15 in [2] (IC50(MRC5)/IC50(HCT116)); 52 in experiment [2] (IC50(PBMC)/IC50(HCT116)); 5 in experiment [3] (IC50(MRC5)/IC50(HL-60)); 17.3 in [3] (IC50(PBMC)/IC50(HL-60)). The Selectivity index is 5 in experiment [4] (IC50(MRC5)/IC50(HSC-3)); 17.3 in [4] (IC50(PBMC)/IC50(HSC-3)); 15 in [5] (IC50(MRC5)/IC50(HepG2)); 52 in experiment [5] (IC50(PBMC)/IC50(HepG2)); 5 in [6] (IC50(MRC5)/IC50(K-562)); 17.3 in experiment [6] (IC50(PBMC)/IC50(K-562)). Moreover, the Selectivity index turned out to be 1.4 in experiment [7] (IC50(MRC5)/IC50(MCF7)), 4.7 in [7] (IC50(PBMC)/IC50(MCF7)) and 3 in experiment [14] (IC50(MRC5)/IC50(SCC-9)). In addition, the IC50 in experiment [1] (Mus musculus) amounted to 30 nM; in [2] (Homo sapiens, HCT-116), 100 nM; in experiment [3] (Homo sapiens), 300 nM; in experiment [4] (Homo sapiens, HSC-3), 300 nM; in experiment [5] (Homo sapiens), 100 nM; in [6] (Homo sapiens), 300 nM. In addition, the IC50 in experiment [7] (Homo sapiens) stood at 1100 nM; in [14] (Homo sapiens, SCC-9, SCC9, alamarBlue, 72 h), 500 nM; in experiment [8] (Homo sapiens) it was 1500 nM; in experiment [9] (Homo sapiens), 5200 nM; in [15] it was 400 nM; in [16] it was 30 nM. Also, half-maximal inhibition in experiment [10] (Homo sapiens, HCT-116) (IC50) required 4.5 µM. Also, the “number of viable cells” value in the experiment with HCT116 cells [11] is “reduced the number of viable cells”. The “DNA content (%) G0/G1” value with HCT116 cells [12] (setting [19]) is reported as 28.0 ± 6.3%; in the experiment with HCT116 cells [12] (setting [20]) it was 22.5 ± 4.0^∗ %. In addition, the “DNA content (%) G2/M” value with HCT116 cells [12] (setting [19]) is reported as 44.1 ± 3.4^∗ %; in the experiment on HCT116 cells [12] (setting [20]), 44.2 ± 4.4^∗ %. The “DNA content (%) S” value with HCT116 cells [12] (setting [19]) is given as 10.0 ± 2.5%; in the experiment on HCT116 cells [12] (setting [20]), 14.9 ± 2.5%. Besides, the “DNA content (%) Sub-G0/G1” value in the experiment with HCT116 cells [12] (setting [19]) is listed as 9.7 ± 2.5%; in the experiment with HCT116 cells [12] (setting [20]), 18.3 ± 2.5%. Moreover, in the experiment with HCT116 cells [12] (HCT116, DOX 1 μM), the cell cycle block result is “caused cell cycle block at the phase G2/M”. Also, the “displacement of ethidium bromide from ctDNA (fluorescence intensity)” value with calf thymus DNA (ctDNA) is listed as “significantly reduced the fluorescence intensity”. In the experiment on HCT116 cells [13], the cell morphology entry is “cell shrinkage, chromatin condensation, and nuclear fragmentation”.

Turning to `O=c1[nH]cc(F)c(=O)[nH]1` [5-FU, 5-fluorouracil], the values for the IC50 in experiment [15] and in experiment [16] were 7300 nM and 1700 nM, respectively.
